In brackets after ≈: the same amount, converted by molar mass.

The nature of data set [1]: physchem. The following applies: for solubility at 24 h: 37 °C, thermodynamic from solid; for fold improvement in solubility over MBZ-C: 24 h, pH 7.4. The procedure: The aqueous solubility was determined as previously reported using the shake-flask procedure published by Zhou, et al., 2007. The compound was added to PBS buffer (0.01 M) and shaken for 24 h at 37° C. to ensure saturation. After 24 h, the solution was centrifuged (10,000 rpm, 2 min, RT) filtered (0.45 μm PTFE) and the filtrate was diluted appropriately (i.e. neat, 1/10, 1/100, 1/1000) and the concentration of compound was determined using LC/MS.

Data set [2] can be described thus: Chemical stability in PBS at 37° C. (LC-MS). The format is physicochemical. To be noted: for chemical stability: aqueous environment / PBS. The procedure:
Prodrugs were also tested for chemical stability in 0.01 M PBS for 60 min at 37° C. by monitoring intact prodrug using LC-MS. […] Thus prodrug 14 was not assessed in assays due to its significant instability in PBS at pH 7.4.
Prodrug chemical stability was measured by the addition of 1 μL, of 10 mM DMSO stock solution to 1 mL of preheated (37° C.) […], resulting in a final concentration of 10 μM. The mixture was vortex mixed for 30 sec, and then incubated at 37° C. At specified time points 100 μL of the mixture was removed and extracted with 300 μL of cold acetonitrile (0° C.) with internal standard. This mixture was further diluted with 400 μL of water and the resulting solution was analyzed by LC-MS.

A short description of data set [3]: In vitro stability in mouse jejunum (intestinal) homogenate. To be noted: for In vitro stability in mouse (% remaining at 60 min) Intestinal homogenate: 10 μM. The data set is classed as in vitro ADME. The procedure: (§1) In addition to solubility, all prodrugs were screened for in vitro metabolic stability in mouse jejunum homogenate, liver microsomes and plasma (see Table 3) to characterize their bioconversion to MBZ. The screening paradigm was designed to confirm activation of prodrugs to MBZ following oral administration in these highly metabolic sites. Initial screening was done in mouse jejunum homogenate by incubating the compounds for 60 min. […] Following jejunum stability, the prodrugs were screened in mouse liver microsomes.
(§2) In vitro stability studies were done using mouse jejunum homogenate, mouse liver microsomes or naïve mouse plasma. For mouse jejunum homogenate stability study, washed mouse jejunum was diluted 10-fold in 0.1 M potassium phosphate buffer, and homogenized using probe sonication. Crude homogenate was then aliquoted to 1 mL and the homogenate was spiked with 10 μM of compound. Liver microsome stability assay was performed in 100 mM potassium phosphate buffer, pH 7.4, and reactions were initiated by addition of the liver microsomes to the incubation mixture (compound final concentration was 10 μM; 0.5 mg/mL microsomes). The plasma stability of the prodrugs was determined by spiking (10 μM) of prodrugs in 1 mL of plasma and incubating in an orbital shaker at 37° C. All the stability studies were conducted at predetermined times (0 and 60 min), where 100 μL aliquots of the mixture in triplicate were removed and the reaction was quenched by addition of three times the volume of ice cold acetonitrile spiked with the internal standard (losartan: 0.5 μM). The samples were vortex mixed for 30 sec and centrifuged at 10000×g for 10 min at 4° C. Fifty microliter of the supernatant was diluted with 50 μL water and transferred to a 2504 polypropylene vial sealed with a Teflon cap. Prodrug disappearance was monitored over time using liquid chromatography and tandem mass spectrometry (LC-MS/MS).
(§3) Briefly, prodrugs were analyzed on a Thermo Scientific Accela UPLC system coupled to Accela open autosampler at ambient temperature with an Agilent Eclipse Plus column (100×2.1 mm i.d.) packed with a 1.8 μm C18 stationary phase. The autosampler was temperature controlled and operated at 10° C. The mobile phase used for the chromatographic separation was composed of acetonitrile/water containing 0.1% formic acid and with a flow rate of 0.4 mL/min for 4.5 min using gradient elution. The column effluent was monitored using TSQ Vantage triple-quadrupole mass-spectrometric detector, equipped with an electrospray probe set in the positive ionization mode. Samples were introduced into the ionization source through a heated nebulized probe (350° C.). Disappearance of prodrugs was measured from ratio of peak areas of analyte to IS.

The nature of data set [4]: In vitro stability in mouse liver microsomes. To be noted: for In vitro stability in mouse (% remaining at 60 min) Liver microsomes: 10 μM, 0.5 mg/mL microsomes. The data set is classed as in vitro ADME. The procedure:
as §1, §2, §3
(Liver microsomes are a subcellular fraction often used to study metabolism.)

Data set [5] is described as follows: In vitro stability in mouse plasma. The format is in vitro ADME. To be noted: for In vitro stability in mouse (% remaining at 60 min) Plasma: 10 μM, 37° C. The protocol:
as §1, §2, §3

The conditions of data set [6]: male, CD-1, mouse, in vivo, 30 mg/kg. The procedure: (§4) All pharmacokinetic studies in mice were conducted according to protocols approved by the Animal Care and Use Committee at Johns Hopkins University. Male CD-1 mice between 25 and 30 g were obtained from Harlan, and maintained on a 12-h light-dark cycle with ad libitum access to food and water. […] The mice were sacrificed at specified time points post drug administration. For collection of plasma and brain tissue, animals were euthanized with CO2, and blood samples were collected in heparinized microtubes by cardiac puncture. Tissues were dissected and immediately flash frozen (−80° C.). Blood samples were spun at 2,000×g for 15 min, plasma was removed and stored at −80° C. until LC/MS analysis. Prior to extraction, frozen samples were thawed on ice. The calibration curves were developed using plasma and brain from naïve animals as a matrix. Plasma samples (50 μL), were processed using a single liquid extraction method by addition of 3004 of acetonitrile as with internal standard (losartan: 0.5 μM), followed by vortex mixing for 30 sec and then centrifugation at 10,000×g for 10 min at 4° C. For brain tissue, homogenized samples were vortex mixed and centrifuged as above. A 104 aliquot of supernatant was diluted with 35 µL of acetonitrile and mixed with 50 μL water containing 0.5 μM losartan as internal standard. Extracts were centrifuged at 10,000×g for 10 min at 4° C. Supernatants were transferred to 2504 polypropylene autosampler vials sealed with a Teflon cap. A volume of 34 was injected onto the ultra-performance liquid chromatography (UPLC) instrument for quantitative analysis by LC-MS/MS.
The a priori level of significance for all analyses was defined asp <0.05.

For data set [7] the following is noted: in vivo, po. The procedure:
Brain concentrations of MBZ were also measured in tandem.
as §4

With `COC(=O)Nc1nc2cc(C(=O)c3ccccc3)ccc2n1COC(=O)CNC(=O)[C@H](CC(C)C)NC(C)=O` [Compound 7, (5-Benzoyl-2-((methoxycarbonyl)amino)-1H-benzo[d]imidazol-1-yl)methyl acetyl-L-leucylglycinate], the solubility at 24 h in data set [1] (pH 7.4, aqueous buffer) was found to be 85.5 µg/mL (≈ 159 µM). Besides, the “fold improvement in solubility over MBZ-C” value in data set [1] is recorded as “greater than 200 fold”. In data set [2], the “chemical stability” value is reported as “sufficiently stable”. Besides, the “In vitro stability in mouse (% remaining at 60 min) Intestinal homogenate” value in data set [3] is recorded as 18 ± 1%. In addition, the “In vitro stability in mouse (% remaining at 60 min) Liver microsomes” value in data set [4] was 29 ± 1%. Further, the “In vitro stability in mouse (% remaining at 60 min) Plasma” value in data set [5] turned out to be 0 ± 0%. The “MBZ plasma concentration at 1 h post oral administration” value (shortened to “MBZ plasma concentration”) in data set [6] amounted to 8.72 ± 0.63 nmol/mL.
As for `COC(=O)Nc1nc2cc(C(=O)c3ccccc3)ccc2n1C(OC(=O)C(C)(C)C)C(C)C` (stereo not drawn) [Compound 16, 1-(5-benzoyl-2-((methoxycarbonyl)amino)-1H-benzo[d]imidazol-1-yl)-2-methylpropyl pivalate], the “In vitro stability in mouse (% remaining at 60 min) Intestinal homogenate” value in data set [3] was found to be 100%.
Take `COC(=O)Nc1nc2cc(C(=O)c3ccccc3)ccc2n1COP(=O)([O-])OC(C)OC(=O)OC(C)C.[Na+]` (stereo not drawn) [Compound 17, Methyl (5-benzoyl-1-(((hydroxy(((isopropoxycarbonyl)oxy)ethoxy)phosphoryl)oxy)methyl)-111-benzo[d]imidazol-2-yl)carbamate, sodium salt]: the “In vitro stability in mouse (% remaining at 60 min) Intestinal homogenate” value in data set [3] was found to be 46%. In addition, the “In vitro stability in mouse (% remaining at 60 min) Liver microsomes” value in data set [4] turned out to be 82%. For the same compound, the “In vitro stability in mouse (% remaining at 60 min) Plasma” value in data set [5] is listed as 89%.
Compound `COC(=O)Nc1nc2cc(C(=O)c3ccccc3)ccc2n1COC(=O)CC[C@H](N)C(=O)O` [Compound 14, (S)-2-Amino-5-((5-benzoyl-2-((methoxycarbonyl)amino)-1H-benzo[d]imidazol-1-yl)methoxy)-5-oxopentanoic acid] returned a solubility at 24 h in data set [1] (pH 7.4, water) of 451 µg/mL (≈ 992 µM). In data set [2] (0.01 M PBS, 37° C., 60 min), the “chemical stability, % remaining at 60 min” value stood at 0%. Also, the “chemical stability” value in data set [2] is recorded as “too unstable”.
`COC(=O)Nc1nc2cc(C(=O)c3ccccc3)ccc2n1COC(=O)CCC(=O)O` [Compound 8, 4-((5-Benzoyl-2-((methoxycarbonyl)amino)-1H-benzo[d]imidazol-1-yl)methoxy)-4-oxobutanoic acid] returned a solubility at 24 h in data set [1] (pH 7.4, aqueous buffer) of 386 µg/mL (≈ 908 µM). For the same compound, the “fold improvement in solubility over MBZ-C” value in data set [1] is reported as “greater than 200 fold”. Besides, the “In vitro stability in mouse (% remaining at 60 min) Intestinal homogenate” value in data set [3] turned out to be 30 ± 2%. Moreover, the “In vitro stability in mouse (% remaining at 60 min) Liver microsomes” value in data set [4] is given as 24 ± 0%. The “In vitro stability in mouse (% remaining at 60 min) Plasma” value in data set [5] is recorded as 78 ± 1%.
Turning to `COC(=O)Nc1nc2cc(C(=O)c3ccccc3)ccc2n1COP(=O)([O-])OCOC(=O)OC(C)C.[Na+]` [Compound 12, Methyl (5-benzoyl-1-(((hydroxy(((isopropoxycarbonyl)oxy)methoxy)phosphoryl)oxy)methyl)-1H-benzo[d]imidazol-2-yl)carbamate, sodium salt], the “fold improvement in solubility over MBZ-C” value in data set [1] is > 10,000 fold. In data set [3], the “stability in intestinal tissue homogenate” value was “unstable” and the “In vitro stability in mouse (% remaining at 60 min) Intestinal homogenate” value is listed as 1 ± 0%. For the same compound, the “In vitro stability in mouse (% remaining at 60 min) Liver microsomes” value in data set [4] was 14 ± 0%. The “In vitro stability in mouse (% remaining at 60 min) Plasma” value in data set [5] is reported as 73 ± 3%. For the same compound, the “MBZ plasma concentration” value in data set [6] was determined as 10.35 ± 2.57 nmol/mL. Moreover, the “fold improvement in plasma MBZ over MBZ-C” value in data set [6] (po, 1 h) amounted to 3.6 fold. In data set [7] (male, CD-1, mouse, 30 mg/kg), the “AUC0-t (MBZ, plasma)” value worked out at 27.9 µM·h; the “brain AUC0-t” value is 21.9 µM·h; the “fold enhanced plasma AUC0-t compared to MBZ-C” value is reported as 2.2 fold; the “fold increase in brain AUC0-t over MBZ-C” value was 1.7 fold. Moreover, in data set [7] (mouse), the “intact prodrug in brain samples” value was “no intact prodrug was detected” and the “intact prodrug in plasma samples” value is given as “no intact prodrug was detected”. Moreover, the “AUC0-t (MBZ, brain)” value in data set [7] (mouse, 30 mg/kg) amounted to 21.9 ± 2.0 nmol·h/g.
Turning to `COC(=O)Nc1nc2cc(C(=O)c3ccccc3)ccc2n1C(C)OC(=O)C(C)(C)C` (stereo not drawn) [Compound 15, 1-(5-benzoyl-2-((methoxycarbonyl)amino)-1H-benzo[d]imidazol-1-yl)ethyl pivalate], the “In vitro stability in mouse (% remaining at 60 min) Intestinal homogenate” value in data set [3] worked out at 60%. The “In vitro stability in mouse (% remaining at 60 min) Plasma” value in data set [5] amounted to 85%.
For the compound `COC(=O)Nc1nc2cc(C(=O)c3ccccc3)ccc2n1COC(=O)C(C)(C)C` [Compound 1, (5-Benzoyl-2-((methoxycarbonyl)amino)-1H-benzo[d]imidazol-1-yl)methyl pivalate], the “In vitro stability in mouse (% remaining at 60 min) Intestinal homogenate” value in data set [3] amounted to 37 ± 2%. Moreover, in data set [5], the “In vitro stability in mouse (% remaining at 60 min) Plasma” value came to 4 ± 0%.
Regarding `COC(=O)Nc1nc2cc(C(=O)c3ccccc3)ccc2n1COC(=O)OC[C@H]1OC(O)[C@H](O)[C@@H](O)[C@@H]1O` (stereo partly drawn) [Compound 9, Methyl (5-benzoyl-1-((((((2R,3S,4S,5R)-3,4,5,6-tetrahydroxytetrahydro-2H-pyran-2-yl)methoxy)carbonyl)oxy)methyl)-1H-benzo[d]imidazol-2-yl)carbamate], in data set [1] (pH 7.4, aqueous buffer), the concentration in solution (solubility at 24 h) was 220 µg/mL (≈ 414 µM). In addition, the “fold improvement in solubility over MBZ-C” value in data set [1] was “greater than 200 fold”. For the same compound, the “In vitro stability in mouse (% remaining at 60 min) Intestinal homogenate” value in data set [3] turned out to be 4 ± 0%. In addition, the “In vitro stability in mouse (% remaining at 60 min) Liver microsomes” value in data set [4] is given as 27 ± 0%. For the same compound, the “In vitro stability in mouse (% remaining at 60 min) Plasma” value in data set [5] turned out to be 18 ± 0%. Moreover, the “metabolized in mouse plasma” value in data set [5] (60 min incubation) came out at 82%.
Take `COC(=O)Nc1nc2cc(C(=O)c3ccccc3)ccc2n1COP(=O)(O)O` [Compound 11, Methyl (5-benzoyl-1-((phosphonooxy)methyl)-1H-benzo[d]imidazol-2-yl)carbamate]: the “In vitro stability in mouse (% remaining at 60 min) Intestinal homogenate” value in data set [3] was 35 ± 4%. In data set [4], the “In vitro stability in mouse (% remaining at 60 min) Liver microsomes” value is 100 ± 2%. Besides, in data set [4] (60 min incubation), the “stability in liver microsomes” value is on record as “stable”. Moreover, in data set [5], the “In vitro stability in mouse (% remaining at 60 min) Plasma” value was found to be 62 ± 1%. Moreover, the “MBZ plasma concentration” value in data set [6] was 8.53 ± 2.33 nmol/mL.

The term solubility denotes the concentration that dissolves in the medium under given conditions. A high value points to a readily soluble substance.

Values taken from US20210205271A1 (The Johns Hopkins University, priority 2018, published 2021).
